Measurements from ChEMBL document CHEMBL4033668, “Inhibitors of cytochrome P450 (CYP) 1B1” (Eur J Med Chem, 2017).

What was measured:
Cytochrome P450 1B1 [1] = target: T1, Cytochrome P450 1B1 (Homo sapiens, UniProt Q16678); assay: Inhibition of recombinant CYP1B1 (unknown origin) expressed in supersomes coexpressing NADPH-CYP reductase using 7-ethoxyresorufin as substrate after 15 mins in presence of NADP+ by fluorescence spectrophotometric analysis
T1 sequence (Q16678 whole entry): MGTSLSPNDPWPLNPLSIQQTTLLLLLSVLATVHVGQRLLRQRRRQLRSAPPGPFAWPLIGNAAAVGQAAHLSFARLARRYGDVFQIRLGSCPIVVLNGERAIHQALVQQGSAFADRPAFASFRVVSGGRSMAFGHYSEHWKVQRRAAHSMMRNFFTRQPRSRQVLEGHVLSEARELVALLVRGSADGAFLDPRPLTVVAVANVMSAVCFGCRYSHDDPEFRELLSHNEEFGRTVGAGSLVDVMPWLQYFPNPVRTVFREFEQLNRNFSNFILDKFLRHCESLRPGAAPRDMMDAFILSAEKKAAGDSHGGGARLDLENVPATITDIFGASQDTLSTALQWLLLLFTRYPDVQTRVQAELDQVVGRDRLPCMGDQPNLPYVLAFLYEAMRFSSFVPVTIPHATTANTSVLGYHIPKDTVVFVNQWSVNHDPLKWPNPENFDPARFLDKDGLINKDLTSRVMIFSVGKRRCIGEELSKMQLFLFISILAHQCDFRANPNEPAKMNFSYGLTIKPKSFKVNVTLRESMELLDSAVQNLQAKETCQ

Cytochrome P450 1B1 [2] = target: T1, Cytochrome P450 1B1; assay: Inhibition of recombinant CYP1B1 (unknown origin) expressed in supersomes coexpressing NADPH-CYP reductase using 7-ethoxyresorufin as substrate after 15 mins in presence of NADP+ by Lineweaver-Burk plot analysis
Cytochrome P450 1B1 [3] = target: T1, Cytochrome P450 1B1; assay: Inhibition of CYP1B1 (unknown origin) expressed in Escherichia coli DH5alpha coexpressing human NADPH-P450 reductase using 7-Ethoxyresorufin as substrate up to 6 mins in presence of NADP+ by spectrofluorometric analysis
Cytochrome P450 1A2 [4] = target: T2, Cytochrome P450 1A2 (Homo sapiens, UniProt P05177); assay: Inhibition of recombinant human CYP1A2 expressed in supersomes using 7-ethoxyresorufin O-deethylation as substrate after 5 mins in presence of NADP+ by spectrofluorimetric analysis; assay type: ADME
T2 sequence (P05177 whole entry): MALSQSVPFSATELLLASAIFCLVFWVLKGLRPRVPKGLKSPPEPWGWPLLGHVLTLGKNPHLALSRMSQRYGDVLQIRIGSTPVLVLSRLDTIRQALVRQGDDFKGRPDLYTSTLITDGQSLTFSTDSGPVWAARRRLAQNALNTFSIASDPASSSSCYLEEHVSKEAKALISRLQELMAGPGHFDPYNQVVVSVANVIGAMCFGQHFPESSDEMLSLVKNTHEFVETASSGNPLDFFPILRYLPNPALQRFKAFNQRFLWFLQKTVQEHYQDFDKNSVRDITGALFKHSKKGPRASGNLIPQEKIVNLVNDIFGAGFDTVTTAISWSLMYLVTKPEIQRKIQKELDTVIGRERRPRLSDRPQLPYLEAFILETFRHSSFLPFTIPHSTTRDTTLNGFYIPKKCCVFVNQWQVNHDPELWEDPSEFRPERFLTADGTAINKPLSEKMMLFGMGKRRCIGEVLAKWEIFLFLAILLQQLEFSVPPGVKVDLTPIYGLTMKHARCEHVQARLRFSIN

Cytochrome P450 1B1 [5] = target: T1, Cytochrome P450 1B1; assay: Inhibition of CYP1B1 in […] recombinant human cytochrome P450 oxidoreductase using 7-ethoxyresorufin as substrate after 3 mins in presence of NADP+ by fluorescence assay
Cytochrome P450 1B1 [6] = target: T1, Cytochrome P450 1B1; assay: Inhibition of human CYP1B1 expressed in Escherichia coli DH5alpha coexpressing human NADPH-P450 reductase using 4-estradiol as substrate in presence of NADP+ by Michaelis-Menten plot analysis
Cytochrome P450 1B1 [7] = target: T1, Cytochrome P450 1B1; assay: Inhibition of human CYP1B1 expressed in Escherichia coli DH5alpha coexpressing human NADPH-P450 reductase using 4-estradiol as substrate in presence of NADP+ by HPLC analysis
Cytochrome P450 1B1 [8] = target: T1, Cytochrome P450 1B1; assay: Competitive inhibition of CYP1B1 (unknown origin) expressed in yeast microsomes using (-)benzo[a]pyrene-7R-trans-7,8-dihyrodiol (B[a]P-7,8-diol) as substrate
Cytochrome P450 1A1 [9] = target: T3, Cytochrome P450 1A1 (Homo sapiens, UniProt P04798); assay: Inhibition of CYP1A1 (unknown origin) expressed in Escherichia coli DH5alpha coexpressing human NADPH-P450 reductase using 7-Ethoxyresorufin as substrate up to 6 mins in presence of NADP+ by spectrofluorometric analysis; assay type: ADME
T3 sequence (P04798 whole entry): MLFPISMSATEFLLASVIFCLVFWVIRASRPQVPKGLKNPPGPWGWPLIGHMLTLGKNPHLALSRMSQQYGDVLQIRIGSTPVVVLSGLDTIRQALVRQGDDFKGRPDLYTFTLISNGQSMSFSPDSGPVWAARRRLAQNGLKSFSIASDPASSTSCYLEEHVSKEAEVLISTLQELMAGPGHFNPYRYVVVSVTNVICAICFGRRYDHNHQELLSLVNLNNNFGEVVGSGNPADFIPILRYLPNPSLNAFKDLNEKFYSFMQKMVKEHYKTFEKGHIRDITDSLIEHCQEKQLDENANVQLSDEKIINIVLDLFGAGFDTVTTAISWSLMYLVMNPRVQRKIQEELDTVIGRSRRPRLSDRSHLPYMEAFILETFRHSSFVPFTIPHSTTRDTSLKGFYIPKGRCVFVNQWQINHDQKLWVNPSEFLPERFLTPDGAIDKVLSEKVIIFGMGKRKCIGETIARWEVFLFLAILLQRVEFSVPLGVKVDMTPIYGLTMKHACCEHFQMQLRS

Cytochrome P450 1A2 [10] = target: T2, Cytochrome P450 1A2; assay: Inhibition of CYP1A2 (unknown origin) expressed in Escherichia coli DH5alpha coexpressing human NADPH-P450 reductase using 7-Ethoxyresorufin as substrate up to 6 mins in presence of NADP+ by spectrofluorometric analysis; assay type: ADME
Cytochrome P450 1B1 [11] = target: T1, Cytochrome P450 1B1; assay: Inhibition of human CYP1B1 expressed in Escherichia coli DH5alpha coexpressing human NADPH P450 reductase using 7-ethoxyresorufin as substrate in presence of NADP+ by spectrofluorometeric analysis
Cytochrome P450 1B1 [12] = target: T1, Cytochrome P450 1B1; assay: Inhibition of human CYP1B1 expressed in Escherichia coli DH5alpha coexpressing human NADPH P450 reductase using 7-ethoxyresorufin as substrate in presence of NADP+ by fluorimetric analysis
Homo sapiens = species on record: Homo sapiens; assay: Selectivity index, ratio of IC50 for human CYP1A1 expressed in Escherichia coli DH5alpha coexpressing human NADPH P450 reductase to IC50 for human CYP1B1 expressed in Escherichia coli DH5alpha coexpressing human NADPH P450 reductase
Cytochrome P450 1B1 [13] = target: T1, Cytochrome P450 1B1; assay: Inhibition of recombinant CYP1B1 (unknown origin) expressed in Escherichia coli DH5alphaF'Iq coexpressing human NADPH-P450 reductase using E2-d4 as substrate after 10 mins in presence of NADP+
Cytochrome P450 1A1 [14] = target: T3, Cytochrome P450 1A1; assay: Inhibition of […] CYP1A1 expressed in Escherichia coli DH5alpha coexpressing NADPH-P450 reductase using 7-ethoxyresorufin O-deethylation as substrate in presence of NADPH by UV absorbance analysis; assay type: ADME
Cytochrome P450 1A2 [15] = target: T2, Cytochrome P450 1A2; assay: Inhibition of […] CYP1A2 expressed in Escherichia coli DH5alpha coexpressing NADPH-P450 reductase using 7-ethoxyresorufin O-deethylation as substrate in presence of NADPH by UV absorbance analysis; assay type: ADME
Cytochrome P450 1B1 [16] = target: T1, Cytochrome P450 1B1; assay: Inhibition of […] CYP1B1 expressed in Escherichia coli DH5alpha coexpressing NADPH-P450 reductase using 7-ethoxyresorufin O-deethylation as substrate in presence of NADPH by UV absorbance analysis
Cytochrome P450 1A1 [17] = target: T3, Cytochrome P450 1A1; assay: Inhibition of recombinant CYP1A1 (unknown origin) expressed in Escherichia coli DH5alphaF'Iq coexpressing human NADPH-P450 reductase using E2-d4 as substrate after 10 mins in presence of NADP+; assay type: ADME
Cytochrome P450 1A1 [18] = target: T3, Cytochrome P450 1A1; assay: Inhibition of recombinant human CYP1A1 expressed in supersomes coexpressing NADPH-CYP reductase using 7-ethoxyresorufin as substrate after 15 mins in presence of NADP+ by Lineweaver-Burk plot analysis; assay type: ADME

## COc1ccccc1/C=C/c1ccc(SC)cc1
Cytochrome P450 1B1 [1]
  Ki: 300 nM
Cytochrome P450 1B1 [2]
  Ki: 41 nM

## CNCCC(Oc1ccc(C(F)(F)F)cc1)c1ccccc1 (stereo not drawn) [FLUOXETINE]
Cytochrome P450 1B1 [3]
  IC50: 475000 nM

## Cc1cc(O)c2c(c1)C(=O)c1cc(O)cc(O)c1C2=O [EMODIN]
Cytochrome P450 1A2 [4]
  IC50: 3730 nM

## COc1ccc(-c2coc3cc(O)cc(O)c3c2=O)cc1 [BIOCHANIN]
Cytochrome P450 1B1 [5]
  Ki: 1900 nM

## COc1ccc2cc3[n+](cc2c1OC)CCc1cc2c(cc1-3)OCO2 [BERBERINE]
Cytochrome P450 1B1 [6]
  Ki: 44 nM
Cytochrome P450 1B1 [7]
  IC50: 330 nM

## COc1c2ccoc2c(OC)c2oc(=O)ccc12 [ISOPIMPINELLIN]
Cytochrome P450 1B1 [8]
  Ki: 11000 nM

## N#C[Se]Cc1ccc(C[Se]C#N)cc1
Cytochrome P450 1B1 [3]
  IC50: 130 to 270 nM
Cytochrome P450 1A1 [9]
  IC50: 100 to 450 nM
Cytochrome P450 1A2 [10]
  IC50: 200 to 1300 nM

## COc1cccc(/C=C/c2ccc(SC)cc2)c1
Cytochrome P450 1B1 [1]
  Ki: 500 nM
Cytochrome P450 1B1 [2]
  Ki: 30 nM

## O=c1c(O)c(-c2ccccc2)oc2ccccc12 [FLAVONOL]
Cytochrome P450 1B1 [11]
  IC50: 90 nM

## c1ccc2c(c1)ccc1cc3c(ccc4ccccc43)cc12
Cytochrome P450 1B1 [12]
  IC50: 9 nM

## c1cc2ccc3cccc4ccc(c1)c2c34
Homo sapiens
  Ratio IC50: 20.5

## COc1c(O)ccc2c1CC[C@@H]1[C@@H]2CC[C@]2(C)[C@@H](O)CC[C@@H]12
Cytochrome P450 1B1 [13]
  Ki: 149000 nM

## O=c1c2ccccc2nc2n1CCc1c-2[nH]c2ccc(O)cc12
Cytochrome P450 1A1 [14]
  IC50: 2560 nM
Cytochrome P450 1A2 [15]
  IC50: 2570 nM
Cytochrome P450 1B1 [16]
  IC50: 90 nM

## CC(C)=CCOc1c2occc2cc2ccc(=O)oc12 [PENTOSALEN]
Cytochrome P450 1B1 [8]
  Ki: 1000 nM

## O=c1cc(-c2ccccc2)oc2cccc(O)c12 [5-HYDROXYFLAVONE]
Cytochrome P450 1B1 [11]
  IC50: 210 nM

## N#C[Se]Cc1ccccc1C[Se]C#N
Cytochrome P450 1B1 [3]
  IC50: 130 to 270 nM
Cytochrome P450 1A1 [9]
  IC50: 100 to 450 nM
Cytochrome P450 1A2 [10]
  IC50: 200 to 1300 nM

## COc1cc2c(cc1O)CC[C@@H]1[C@@H]2CC[C@]2(C)[C@@H](O)CC[C@@H]12 [2-METHOXYESTRADIOL]
Cytochrome P450 1A1 [17]
  Ki: 88000 nM
Cytochrome P450 1B1 [13]
  Ki: 36000 nM

## COc1cc(O)cc(/C=C/c2ccc(O)cc2)c1
Cytochrome P450 1A1 [18]
  Ki: 130 nM
